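Interpolation was linear, between the two tested concentrations surrounding the appropriate level; five concentrations were tested over 48 hours in 96-well plates. GI50 marks 50% less growth.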 Calls of active or inactive are those of the source. Cut-off read from the data, not from the text of the source: active = GI50 up to about 1.1 µM and inactive = higher.
Tests used:
Test in all cases: growth of human tumour cells (NCI), 48 h
UACC-257 = system: UACC-257
PC-3 = system: PC-3
NCI/ADR-RES = system: NCI/ADR-RES
786-0 = system: 786-0
HT-29 = system: HT-29
SW-620 = system: SW-620
COLO 205 = system: COLO 205
NCI-H23 = system: NCI-H23
IGROV-1 = system: IGROV-1
UO-31 = system: UO-31
U-251 = system: U-251
NCI-H522 = system: NCI-H522
OVCAR-8 = system: OVCAR-8
SK-OV-3 = system: SK-OV-3
SK-MEL-5 = system: SK-MEL-5
NCI-H226 = system: NCI-H226
CAKI-1 = system: CAKI-1
A498 = system: A498
NCI-H460 = system: NCI-H460
SK-MEL-28 = system: SK-MEL-28

Measured: GI50

COC(=O)CN1Cc2cc(C)cc(c2O)CN(CC(=O)OC)Cc2cc(C)cc(c2O)CN(CC(=O)OC)Cc2cc(C)cc(c2O)CN(CC(=O)OC)Cc2cc(C)cc(c2O)C1
inactive: UACC-257 16.8 µM | PC-3 18.5 µM | NCI/ADR-RES 19.5 µM | 786-0 10.2 µM | HT-29 8.79 µM | SW-620 14.3 µM | COLO 205 13.7 µM | NCI-H23 30.5 µM | IGROV-1 19.7 µM | UO-31 8.89 µM | U-251 14 µM | NCI-H522 > 100 µM | OVCAR-8 11 µM | SK-OV-3 11.9 µM | SK-MEL-5 19.9 µM | NCI-H226 8.04 µM | CAKI-1 24.2 µM | A498 18.1 µM | NCI-H460 6.85 µM | SK-MEL-28 21.9 µM

O=C(CCc1ccc(O)cc1)NCCCNC(=O)CCc1ccc(O)cc1
inactive: UACC-257 > 100 µM | PC-3 > 100 µM | NCI/ADR-RES > 100 µM | 786-0 > 100 µM | HT-29 > 100 µM | SW-620 > 100 µM | COLO 205 > 100 µM | NCI-H23 > 100 µM | IGROV-1 > 100 µM | UO-31 > 100 µM | U-251 > 100 µM | NCI-H522 > 100 µM | OVCAR-8 > 100 µM | SK-OV-3 > 100 µM | SK-MEL-5 > 100 µM | NCI-H226 > 100 µM | CAKI-1 > 100 µM | A498 > 100 µM | NCI-H460 > 100 µM | SK-MEL-28 > 100 µM

O=c1/c(=C/c2ccc([N+](=O)[O-])o2)sc2n1[C@@H](c1ccc(Cl)cc1)C=C(c1cc(F)c(Cl)cc1Cl)N=2
inactive: UACC-257 15.4 µM | PC-3 11.5 µM | NCI/ADR-RES 30.8 µM | 786-0 4.71 µM | HT-29 6.62 µM | SW-620 4.91 µM | COLO 205 3.94 µM | NCI-H23 15.3 µM | IGROV-1 15.8 µM | UO-31 14.7 µM | U-251 8.02 µM | NCI-H522 18.3 µM | OVCAR-8 4.16 µM | SK-OV-3 14.8 µM | SK-MEL-5 13.9 µM | NCI-H226 15.8 µM | CAKI-1 28.7 µM | A498 30.7 µM | NCI-H460 10 µM | SK-MEL-28 24.2 µM

O=C(CCCc1cccc2[nH]c3c(c12)CN(Cc1ccccc1)CC3)c1ccc(F)cc1
inactive: UACC-257 2.61 µM | PC-3 > 43.6 µM | NCI/ADR-RES > 100 µM | 786-0 > 52.5 µM | HT-29 4.39 µM | SW-620 83.2 µM | COLO 205 14.4 µM | NCI-H23 16.3 µM | IGROV-1 > 100 µM | UO-31 > 33.3 µM | U-251 49.4 µM | NCI-H522 32.4 µM | OVCAR-8 > 100 µM | SK-OV-3 > 47.1 µM | SK-MEL-5 18.2 µM | NCI-H226 > 95.3 µM | CAKI-1 > 100 µM | A498 > 100 µM | NCI-H460 31.5 µM | SK-MEL-28 > 100 µM

Cc1ccc(C(=O)/C=C2/Nc3ccc([N+](=O)[O-])cc3N/C2=C/C(=O)c2ccc(C)cc2)cc1
inactive: UACC-257 > 100 µM | PC-3 92.3 µM | NCI/ADR-RES 47.6 µM | 786-0 60.7 µM | HT-29 > 100 µM | SW-620 > 100 µM | COLO 205 > 100 µM | NCI-H23 37.7 µM | IGROV-1 42.5 µM | UO-31 > 100 µM | U-251 27.7 µM | NCI-H522 47.1 µM | OVCAR-8 36 µM | SK-OV-3 41.1 µM | SK-MEL-5 > 100 µM | NCI-H226 > 100 µM | CAKI-1 87.5 µM | A498 44.7 µM | NCI-H460 > 100 µM | SK-MEL-28 > 100 µM

OCC(CCc1c[nH]c2ccccc12)c1c[nH]c2ccccc12 (stereo not given)
inactive: UACC-257 11.6 µM | PC-3 17.2 µM | NCI/ADR-RES 18 µM | 786-0 16 µM | HT-29 17 µM | SW-620 15.7 µM | COLO 205 16.9 µM | NCI-H23 15.6 µM | IGROV-1 12.7 µM | UO-31 12.6 µM | U-251 16.7 µM | NCI-H522 16 µM | OVCAR-8 20.7 µM | SK-OV-3 30.5 µM | SK-MEL-5 16.8 µM | NCI-H226 18.1 µM | CAKI-1 26.1 µM | A498 15.2 µM | NCI-H460 14.6 µM | SK-MEL-28 20.5 µM

CC(C)Oc1c(C2(c3ccccc3)SCCCS2)c(=O)c1=O
inactive: UACC-257 > 100 µM | PC-3 > 100 µM | NCI/ADR-RES > 100 µM | 786-0 > 100 µM | HT-29 > 100 µM | SW-620 > 100 µM | COLO 205 > 100 µM | NCI-H23 > 100 µM | IGROV-1 > 100 µM | UO-31 > 100 µM | U-251 > 100 µM | NCI-H522 24.7 µM | OVCAR-8 > 100 µM | SK-OV-3 > 100 µM | SK-MEL-5 > 100 µM | NCI-H226 > 100 µM | CAKI-1 > 100 µM | A498 > 100 µM | NCI-H460 > 100 µM | SK-MEL-28 > 100 µM

O=[N+]([O-])/C(C(Cl)=C(Cl)Cl)=C(/Sc1ccccc1)N1CCOCC1
inactive: UACC-257 9.91 µM | PC-3 6.01 µM | NCI/ADR-RES 6.28 µM | 786-0 2.28 µM | HT-29 6.15 µM | SW-620 2.26 µM | COLO 205 3.88 µM | NCI-H23 11.3 µM | IGROV-1 3.13 µM | UO-31 4.67 µM | U-251 10.5 µM | NCI-H522 4.31 µM | OVCAR-8 1.89 µM | SK-OV-3 34.8 µM | SK-MEL-5 3 µM | NCI-H226 11.4 µM | CAKI-1 6.27 µM | A498 14.6 µM | NCI-H460 5.05 µM | SK-MEL-28 4.74 µM

Clc1ccc(C2c3ccccc3-c3nc4ccccc4n32)cc1 (stereo not given)
inactive: UACC-257 53.7 µM | PC-3 19.4 µM | NCI/ADR-RES 11.8 µM | 786-0 17.7 µM | HT-29 20.9 µM | SW-620 44.8 µM | COLO 205 > 61.2 µM | NCI-H23 15.5 µM | IGROV-1 12.6 µM | UO-31 4.05 µM | U-251 24.3 µM | NCI-H522 11.6 µM | OVCAR-8 18.2 µM | SK-OV-3 3.34 µM | SK-MEL-5 27.4 µM | NCI-H226 > 42.5 µM | CAKI-1 37.1 µM | A498 25.1 µM | NCI-H460 19.7 µM | SK-MEL-28 > 56.8 µM

Cc1ccc(S(=O)(=O)OC2CN3CCC2CC3)cc1 (stereo not given)
inactive: UACC-257 > 100 µM | PC-3 > 100 µM | NCI/ADR-RES > 100 µM | 786-0 > 100 µM | HT-29 > 100 µM | SW-620 > 100 µM | COLO 205 > 100 µM | NCI-H23 > 100 µM | IGROV-1 > 100 µM | UO-31 > 100 µM | U-251 > 100 µM | NCI-H522 > 100 µM | OVCAR-8 > 100 µM | SK-OV-3 > 100 µM | SK-MEL-5 > 100 µM | NCI-H226 > 100 µM | CAKI-1 > 100 µM | A498 > 100 µM | NCI-H460 > 100 µM | SK-MEL-28 > 100 µM
